# Measurements published in patent US11357774B2, “Use of a quinoline sulfonyl compound for treatment of inflammation, inflammatory disorders, autoimmune disorders and malaria” (priority 2019, dated 2022).
# Key:
# THP-1 cells = assay: CCK-8 cell viability, THP-1 cells; format: cell-based; settings: THP-1, 6 hours with LPS 5 μg/mL or TNF-α 10 ng/mL; VR23 3 μM, BTZ 6 nM, CFZ 1 nM, DEX 2 μM
# Procedure: Dunnett's test was performed to assess if there are significant differences in cell viability compared to the non-treatment control group. The values presented are mean±SEM (n=3).
# The CCK-8 assay was used to count viable cells under the various treatment conditions. Briefly, cells were cultured in 11 columns of a 96-well clustered plate, with 5,000 cells in 100 μL of culture medium per well, excluding one column for a media-only control. The plate was incubated overnight at 37° C. in the humidified conditions, followed by treatment with test compounds diluted in the culture medium (10 μL). Each column was treated with a different condition so that each treatment could have 8 repeats. […] The absorbance was measured using an automatic plate reader (Synergy H4 Hybrid Multi-Mode Microplate Reader, BioTek, Montreal, Canada) at 450 nm wavelength. The cell viability of each treatment sample was determined by using the following equation (%)=(Abstrtmt-Absmedia)/(AbsuT-Absmedia)*100, where Abstrtmt is the absorbance value of cells with the various treatment conditions; Absmedia is the absorbance of the well containing media only; AbsuT is the absorbance of the wells with untreated cells. […]
# [1] = tested on: human fibroblast-like synoviocytes from healthy donors (HFLS-N); assay: Viability test, HFLS-N cells; format: cell-based; settings: 6 hours, IL-1β 10 ng/mL, VR23 2.5-10 μM
# Procedure: The values presented are the mean±SEM (n=3).
# The CCK-8 assay was used to count viable cells under the various treatment conditions. Briefly, cells were cultured in 11 columns of a 96-well clustered plate, with 5,000 cells in 100 μL of culture medium per well, excluding one column for a media-only control. The plate was incubated overnight at 37° C. in the humidified conditions, followed by treatment with test compounds diluted in the culture medium (10 μL). Each column was treated with a different condition so that each treatment could have 8 repeats. […] The absorbance was measured using an automatic plate reader (Synergy H4 Hybrid Multi-Mode Microplate Reader, BioTek, Montreal, Canada) at 450 nm wavelength. The cell viability of each treatment sample was determined by using the following equation (%)=(Abstrtmt-Absmedia)/(AbsuT-Absmedia)*100, where Abstrtmt is the absorbance value of cells with the various treatment conditions; Absmedia is the absorbance of the well containing media only; AbsuT is the absorbance of the wells with untreated cells.
# This finding was extended to human cells relevant to autoimmune diseases. […] Cytokine levels in cell culture supernatants were determined by a single-analyte ELISA. […] The cytokine secretion was measured in cell culture supernatants by a single-analyte ELISA.
# [2] = tested on: myeloperoxidase (MPO) activity in right lung tissues; assay: Myeloperoxidase assay in lung tissues of mice with LPS-induced ALI; format: in vivo, mouse; settings: LPS 0.4 mg/kg, 24 hours, VR23 30 mg/kg intraperitoneally
# Procedure: Six to eight week old female BALB/c mice strain 028 (Charles River Laboratories, QC, Canada) were fed regularly with laboratory chow and water upon arrival at the Laurentian University Animal Care Facility (Sudbury, ON, Canada). To determine a useful dose of LPS, three mice per group were treated for 24 hours with the following three different conditions: (i) no LPS, (ii) 0.25 mg of LPS per kg of body weight, and (iii) 0.50 mg of LPS per kg of body weight. The different concentrations of LPS were administered intranasally to the three BALB/c mice per concentration. After the animals were sacrificed, the bronchoalveolar lavage fluid (BALF) of each mouse was collected and analyzed for LPS-induced inflammatory responses. […] Experimental design involving the use of VR23 was based on a previous acute lung injury (ALI) instillation by Wei and Huang^26. Briefly, mice were divided into 5 groups, with 3-5 mice per group: no lung injury (i.e., no treat), sham treated, LPS-only, LPS+DEX, and LPS+VR23. […] Bronchoalveolar lavage fluid was collected and the number of cells infiltrated into the bronchoalveolar fluid were counted (FIG. 2). […]
# The accumulation of neutrophils in the lung tissues was analyzed with a colorimetric MPO assay kit (Sigma Aldrich), which measures the amount of myeloperoxidase activity^26. […] The MPO activity was then determined as per the protocol provided by the supplier. […]
structure (smiles),measurement,setting,value
"O=[N+]([O-])c1ccc(S(=O)(=O)N2CCN(c3ccnc4cc(Cl)ccc34)CC2)c([N+](=O)[O-])c1 [VR23, 7-chloro-4-(4-(2,4-dinitrophenylsulfonyl)piperazin-1-yl)quinoline]",cell viability (CCK-8),THP-1 cells,did not significantly differ from the untreated cells
same,cell viability,[1],none of the conditions examined significantly affected the viability
same,myeloperoxidase (MPO) in lung tissues,[2],strong inhibitor of MPO
